What is called IC50 is the concentration that inhibits the measured activity by half.

IC50 data for twelve molecules are collected here from BindingDB's records for doi:10.1021/acs.jmedchem.1c00049 (Genentech, 2021).

The nature of experiment [1]: Inhibition of human Nav1.7 expressed in HEK293 cells incubated for 1 hr in presence of veratridine by sodium influx assay.
The nature of experiment [2]: Displacement of [3H]GX-545 Nav1.7 (unknown origin) expressed in HEK cells by liquid scintillation counting based radioligand competition assay. (Displacement assays read how much labelled ligand stays bound in the presence of the test substance.)

Structures are written as SMILES.

`O=C(NS(=O)(=O)C1COC1)c1cc(C2CC2)c(OCC23CC4CC(CC(C4)C2)C3)cc1F`: the IC50 in experiment [1] came out at 38 nM; in experiment [2] it was 4 nM.
For the molecule `CS(=O)(=O)NC(=O)c1cc(C2CC2)c(OCC2CCN(C(c3ccccc3)c3ccccc3)CC2)cc1F`, the IC50 in experiment [1] turned out to be 66 nM; in experiment [2] it was 3.6 nM.
In the same order, the values of `CS(=O)(=O)NC(=O)c1cc(C2CC2)c(OCC2CCN(Cc3ccccc3)CC2)cc1F` are 3200 nM and 140 nM.
Regarding `O=C(NS(=O)(=O)C1CC1)c1cc(C2CC2)c(OCC23CC4CC(CC(C4)C2)C3)cc1F` [US8952169, 148], the IC50 in experiment [1] was 14 nM; in experiment [2], 1.1 nM.
With `O=C(NS(=O)(=O)N1CCCC1)c1cc(C2CC2)c(OCC23CC4CC(CC(C4)C2)C3)cc1F` [US8952169, 154], the half-maximal inhibitory concentration (IC50) in experiment [1] worked out at 160 nM; in experiment [2], 2.2 nM.
As for `O=C(NS(=O)(=O)N1CCOCC1)c1cc(C2CC2)c(OCC23CC4CC(CC(C4)C2)C3)cc1F` [US8952169, 155], the IC50 in experiment [2] amounted to 2.3 nM.
Take `CS(=O)(=O)NC(=O)c1cc(C2CC2)c(OCC2CN(C(c3ccccc3)c3ccccc3)C2)cc1F` [US8952169, 440]: the figures for the IC50 in experiment [1] and in experiment [2] were 23 nM and 5.5 nM, respectively.
Taken in the same sequence, the figures for `CS(=O)(=O)NC(=O)c1cc(C2CC2)c(OCC2CCN(Cc3ccc(Cl)cc3)CC2)cc1F` [US9546164, 104] were 42 nM and 22 nM.
Regarding `CS(=O)(=O)NC(=O)c1cc(C2CC2)c(OCC2CCN(Cc3ccc(OC(F)(F)F)cc3)CC2)cc1F` [US9546164, 135], the IC50 in experiment [1] stood at 31 nM; in experiment [2], 7.7 nM.
In the same order, the values of `CS(=O)(=O)NC(=O)c1cc(C2CC2)c(OCC2CCN(Cc3cc(Cl)cc(Cl)c3)CC2)cc1F` [US9546164, 139] are 120 nM and 2.4 nM.
Turning to `CC(C)(c1cc(Cl)cc(Cl)c1)N1CCC(COc2cc(F)c(C(=O)NS(C)(=O)=O)cc2C2CC2)CC1` [US9546164, 209], the values for the IC50 in experiment [1] and in experiment [2] were 26 nM and 0.8 nM, respectively.
For `CS(=O)(=O)NC(=O)c1cc(C2CC2)c(OCC2CCN(C(=O)c3cc(Cl)cc(Cl)c3)CC2)cc1F` [US9546164, 253], the figures for the IC50 in experiment [1] and in experiment [2] were 34 nM and 9.8 nM, respectively.
